Laboratory results: patent US10851105B2, “Bicyclic heterocycles as FGFR4 inhibitors” (Incyte Corporation, priority 2014, dated 2020)
Read-outs that look alike come from different tables or passages of the source.

Assays:
FGFR3 = FGFR3 (Homo sapiens (Human), UniProt P22607); assay: FGFR Enzymatic Assay (FRET peptide phosphorylation), FGFR3; conditions: for FGFR3/FGFR4: IC50 ratio
Description: Inhibitors were serially diluted in DMSO and a volume of 0.5 μL was transferred to the wells of a 384-well plate. For FGFR3, a 10 μL volume of FGFR3 enzyme (Millipore) diluted in assay buffer (50 mM HEPES, 10 mM MgCl2, 1 mM EGTA, 0.01% Tween-20, 5 mM DTT, pH 7.5) was added to the plate and pre-incubated for a time between 5-10 minutes and up to 4 hours. Appropriate controls (enzyme blank and enzyme with no inhibitor) were included on the plate. […] The plate was incubated at 25° C. for 1 hr. […] The plate was allowed to equilibrate for ˜1 hr before scanning the wells on a PheraStar plate reader (BMG Labtech).
(§1) GraphPad prism3 was used to analyze the data. The IC50 values were derived by fitting the data to the equation for a sigmoidal dose-response with a variable slope. Y=Bottom+(Top-Bottom)/(1+10^((Log IC50−X)*HillSlope)) where X is the logarithm of concentration and Y is the response.

FGFR4 = FGFR4 (Homo sapiens (Human), UniProt P22455); assay: FGFR Enzymatic Assay (FRET peptide phosphorylation), FGFR4
Description: (§2) The inhibitor potency of the exemplified compounds was measured in an enzyme assay that measures peptide phosphorylation using FRET measurements to detect product formation. Inhibitors were serially diluted in DMSO and a volume of 0.5 μL was transferred to the wells of a 384-well plate. For FGFR3, a 10 μL volume of FGFR3 enzyme (Millipore) diluted in assay buffer (50 mM HEPES, 10 mM MgCl2, 1 mM EGTA, 0.01% Tween-20, 5 mM DTT, pH 7.5) was added to the plate and pre-incubated for a time between 5-10 minutes and up to 4 hours. Appropriate controls (enzyme blank and enzyme with no inhibitor) were included on the plate. […] The plate was incubated at 25° C. for 1 hr. […] The plate was allowed to equilibrate for ˜1 hr before scanning the wells on a PheraStar plate reader (BMG Labtech).
(§3) The enzymes were purchased from Millipore or Invitrogen.
as §1

FGFR1 = FGFR1 (Homo sapiens (Human), UniProt P11362); assay: FGFR Enzymatic Assay (FRET peptide phosphorylation), FGFR1; conditions: for FGFR1/FGFR4: IC50 ratio
Description: as §2, §3, §1

FGFR2 = FGFR2 (Homo sapiens (Human), UniProt P21802); assay: FGFR Enzymatic Assay (FRET peptide phosphorylation), FGFR2; conditions: for FGFR2/FGFR4: IC50 ratio
Description: as §2, §3, §1

[1] = pre-incubated for 5 to 10 minutes
[2] = read-out: FGFR3 IC50, pre-incubated for 5 to 10 minutes
[3] = read-out: FGFR3 IC50, pre-incubated for 4 hours
[4] = read-out: FGFR4 IC50, pre-incubated for 5 to 10 minutes
[5] = read-out: FGFR4 IC50, pre-incubated for 4 hours
[6] = read-out: FGFR1 IC50, pre-incubated for 5 to 10 minutes
[7] = read-out: FGFR1 IC50, pre-incubated for 4 hours
[8] = read-out: FGFR2 IC50, pre-incubated for 5 to 10 minutes
[9] = read-out: FGFR2 IC50, pre-incubated for 4 hours
[10] = FGFR4 IC50 (nM), pre-incubated for 5 to 10 minutes
[11] = FGFR4 IC50 (nM), pre-incubated for 4 hours
[12] = FGFR1 IC50 (nM), pre-incubated for 5 to 10 minutes
[13] = FGFR1 IC50 (nM), pre-incubated for 4 hours

Sequence of FGFR1 (P11362 22-822): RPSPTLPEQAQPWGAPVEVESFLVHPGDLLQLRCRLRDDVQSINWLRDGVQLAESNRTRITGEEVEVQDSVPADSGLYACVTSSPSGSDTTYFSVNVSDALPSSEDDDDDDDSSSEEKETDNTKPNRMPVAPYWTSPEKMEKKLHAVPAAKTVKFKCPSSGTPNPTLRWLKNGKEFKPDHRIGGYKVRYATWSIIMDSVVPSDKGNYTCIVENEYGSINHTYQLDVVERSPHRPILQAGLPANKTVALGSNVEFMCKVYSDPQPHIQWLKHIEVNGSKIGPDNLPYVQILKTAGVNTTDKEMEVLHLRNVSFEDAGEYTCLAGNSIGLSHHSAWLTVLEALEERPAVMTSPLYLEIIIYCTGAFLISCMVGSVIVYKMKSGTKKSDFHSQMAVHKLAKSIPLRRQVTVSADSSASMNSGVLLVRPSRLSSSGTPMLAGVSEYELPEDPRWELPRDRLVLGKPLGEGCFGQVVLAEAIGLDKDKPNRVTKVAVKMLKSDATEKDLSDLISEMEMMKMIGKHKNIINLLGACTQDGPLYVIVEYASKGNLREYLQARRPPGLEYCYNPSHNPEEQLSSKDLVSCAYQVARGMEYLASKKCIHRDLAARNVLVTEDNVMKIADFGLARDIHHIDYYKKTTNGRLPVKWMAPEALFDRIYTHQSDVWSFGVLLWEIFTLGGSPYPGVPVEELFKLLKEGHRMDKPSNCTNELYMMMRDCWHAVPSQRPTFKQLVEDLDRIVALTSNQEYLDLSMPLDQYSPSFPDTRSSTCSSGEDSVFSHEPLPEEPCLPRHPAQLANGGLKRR
Sequence of FGFR2 (P21802 22-821): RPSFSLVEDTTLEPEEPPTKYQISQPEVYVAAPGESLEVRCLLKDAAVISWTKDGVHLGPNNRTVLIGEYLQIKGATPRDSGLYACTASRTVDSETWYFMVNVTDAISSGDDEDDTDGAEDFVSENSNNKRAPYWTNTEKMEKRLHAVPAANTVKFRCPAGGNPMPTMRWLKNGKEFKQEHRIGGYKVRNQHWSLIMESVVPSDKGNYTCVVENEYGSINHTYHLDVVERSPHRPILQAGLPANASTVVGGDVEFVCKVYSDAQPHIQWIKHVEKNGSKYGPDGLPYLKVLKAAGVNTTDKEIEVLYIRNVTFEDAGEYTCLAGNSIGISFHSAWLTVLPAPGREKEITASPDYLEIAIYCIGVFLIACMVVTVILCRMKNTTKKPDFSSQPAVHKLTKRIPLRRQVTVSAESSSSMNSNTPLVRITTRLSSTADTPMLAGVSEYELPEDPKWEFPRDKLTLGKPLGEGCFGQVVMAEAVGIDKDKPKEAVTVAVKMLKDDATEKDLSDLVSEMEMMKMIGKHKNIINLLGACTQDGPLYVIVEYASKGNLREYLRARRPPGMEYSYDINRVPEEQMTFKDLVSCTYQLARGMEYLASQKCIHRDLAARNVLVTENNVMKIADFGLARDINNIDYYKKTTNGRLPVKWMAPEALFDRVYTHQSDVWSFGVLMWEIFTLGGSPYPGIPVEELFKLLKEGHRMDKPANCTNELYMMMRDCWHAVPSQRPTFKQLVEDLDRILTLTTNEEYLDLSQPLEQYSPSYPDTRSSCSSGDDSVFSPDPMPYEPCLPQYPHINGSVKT
Sequence of FGFR3 (P22607 23-806): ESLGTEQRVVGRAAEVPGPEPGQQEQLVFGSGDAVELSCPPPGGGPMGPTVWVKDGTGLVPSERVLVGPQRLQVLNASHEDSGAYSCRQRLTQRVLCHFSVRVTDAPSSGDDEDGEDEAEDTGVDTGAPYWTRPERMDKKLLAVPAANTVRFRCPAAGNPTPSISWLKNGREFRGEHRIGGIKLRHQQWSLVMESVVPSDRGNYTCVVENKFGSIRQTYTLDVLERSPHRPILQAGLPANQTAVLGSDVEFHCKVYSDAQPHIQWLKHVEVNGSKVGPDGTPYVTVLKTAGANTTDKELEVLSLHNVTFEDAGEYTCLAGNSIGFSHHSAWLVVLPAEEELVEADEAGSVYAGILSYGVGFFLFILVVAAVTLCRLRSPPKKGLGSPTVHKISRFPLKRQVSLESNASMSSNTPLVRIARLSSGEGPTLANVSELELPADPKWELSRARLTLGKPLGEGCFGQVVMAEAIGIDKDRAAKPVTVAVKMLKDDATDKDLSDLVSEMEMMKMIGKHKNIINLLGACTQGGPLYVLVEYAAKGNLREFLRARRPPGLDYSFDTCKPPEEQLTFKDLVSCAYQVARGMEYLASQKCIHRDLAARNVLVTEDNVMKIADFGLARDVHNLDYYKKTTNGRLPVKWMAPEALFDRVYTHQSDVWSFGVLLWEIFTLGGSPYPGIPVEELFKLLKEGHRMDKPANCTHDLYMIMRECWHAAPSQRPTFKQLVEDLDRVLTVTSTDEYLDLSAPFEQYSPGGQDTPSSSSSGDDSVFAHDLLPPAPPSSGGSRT
Sequence of FGFR4 (P22455 22-802): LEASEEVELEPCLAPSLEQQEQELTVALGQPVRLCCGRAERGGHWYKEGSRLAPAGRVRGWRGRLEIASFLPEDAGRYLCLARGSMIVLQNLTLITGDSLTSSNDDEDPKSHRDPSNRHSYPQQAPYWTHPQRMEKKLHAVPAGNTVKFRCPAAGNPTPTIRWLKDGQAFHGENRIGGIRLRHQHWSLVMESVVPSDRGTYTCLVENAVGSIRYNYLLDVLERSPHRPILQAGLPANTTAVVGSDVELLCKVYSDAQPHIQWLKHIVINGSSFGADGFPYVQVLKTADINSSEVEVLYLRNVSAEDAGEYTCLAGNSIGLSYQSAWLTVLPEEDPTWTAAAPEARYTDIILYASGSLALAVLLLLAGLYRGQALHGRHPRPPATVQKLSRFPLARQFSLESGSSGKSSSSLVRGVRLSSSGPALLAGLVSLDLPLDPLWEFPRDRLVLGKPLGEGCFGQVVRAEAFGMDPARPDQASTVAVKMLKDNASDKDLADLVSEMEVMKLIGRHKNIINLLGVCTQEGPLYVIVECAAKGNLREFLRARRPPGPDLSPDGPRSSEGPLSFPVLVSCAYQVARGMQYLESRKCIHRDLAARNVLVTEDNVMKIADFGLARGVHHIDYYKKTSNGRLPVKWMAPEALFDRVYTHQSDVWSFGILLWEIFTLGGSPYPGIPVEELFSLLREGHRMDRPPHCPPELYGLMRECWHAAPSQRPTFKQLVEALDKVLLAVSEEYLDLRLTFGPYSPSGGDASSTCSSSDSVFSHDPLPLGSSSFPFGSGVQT

Row | FGFR3/FGFR4 (FGFR3; [1]) | FGFR3/FGFR4 (FGFR3; pre-incubated for 4 hours) | IC50 (FGFR3; [2]) | IC50 (FGFR3; [3]) | IC50 (FGFR4; [4]) | IC50 (FGFR4; [5]) | FGFR1/FGFR4 (FGFR1; [1]) | FGFR1/FGFR4 (FGFR1; pre-incubated for 4 hours) | IC50 (FGFR1; [6]) | IC50 (FGFR1; [7]) | FGFR2/FGFR4 (FGFR2; [1]) | FGFR2/FGFR4 (FGFR2; pre-incubated for 4 hours) | IC50 (FGFR2; [8]) | IC50 (FGFR2; [9]) | IC50 (FGFR3) | IC50 (FGFR4; [10]) | IC50 (FGFR4; [11]) | IC50 (FGFR1; [12]) | IC50 (FGFR1; [13]) | IC50 (FGFR2) | SMILES
1 | >10 | >100 | 30 to 200 nM | – | < 10 nM | < 10 nM | >10 | >100 | > 200 nM | – | >10 | >100 | > 200 nM | > 200 nM | 30 to 200 nM | – | – | – | 30 to 200 nM | – | C=CC(=O)Nc1ccc(N2CCOCC2)cc1Nc1cc2c(cn1)CN(c1c(F)c(OC)cc(OC)c1F)C(=O)C21CC1 [Example 10, N-(2-{[2′-(2,6-difluoro-3,5-dimethoxyphenyl)-3′-oxo-2′,3′-dihydro-1′H-spiro [cyclopropane-1,4′-[2,7]naphthyridin]-6′-yl]amino}-4-morpholin-4-ylphenyl)acrylamide]
2 | >10 | >100 | > 200 nM | > 200 nM | – | < 10 nM | >10 | >100 | > 200 nM | > 200 nM | >10 | >100 | > 200 nM | > 200 nM | – | 10 to 30 nM | – | – | – | – | C=CC(=O)Nc1ccccc1Nc1cc2c(cn1)CN(c1c(F)c(OC)cc(OC)c1F)C(=O)C2(C)C [Example 6, N-(2-(7-(2,6-difluoro-3,5-dimethoxyphenyl)-5,5-dimethyl-6-oxo-5,6,7,8-tetrahydro-2,7-naphthyridin-3-ylamino)phenyl)acrylamide]
3 | >10 | >100 | 30 to 200 nM | – | < 10 nM | < 10 nM | >10 | >100 | – | – | >10 | >100 | 30 to 200 nM | – | 30 to 200 nM | – | – | 30 to 200 nM | 30 to 200 nM | 30 to 200 nM | C=CC(=O)Nc1ccccc1Nc1cc2c(cn1)CN(c1c(F)c(OC)cc(OC)c1F)C(=O)C21CC1 [Example 1, N-(2-(2′-(2,6-difluoro-3,5-dimethoxyphenyl)-3′-oxo-2′,3′-dihydro-1H-spiro[cyclopropane-1,4′-[2,7]naphthyridine]-6′-ylamino)phenyl)acrylamide]
4 | >10 | >100 | > 200 nM | > 200 nM | < 10 nM | < 10 nM | >10 | >25 | > 200 nM | – | >10 | >25 | > 200 nM | – | – | – | – | – | 30 to 200 nM | 30 to 200 nM | C=CC(=O)Nc1ccc(N2CCN(C)CC2)cc1Nc1cc2c(cn1)CN(c1c(F)c(OC)cc(OC)c1F)C(=O)C21CC1 [Example 11, N-(2-(2′-(2,6-difluoro-3,5-dimethoxyphenyl)-3′-oxo-2′,3′-dihydro-1′H-spiro [cyclopropane-1,4′-[2,7]naphthyridine]-6′-ylamino)-4-(4-methylpiperazin-1-yl)phenyl)acrylamide]
5 | >10 | >100 | > 200 nM | > 200 nM | – | – | >10 | >100 | > 200 nM | > 200 nM | >10 | >100 | > 200 nM | > 200 nM | – | 30 to 200 nM | 10 to 30 nM | – | – | – | C=CC(=O)N[C@H]1CCC[C@H]1Oc1ncc2c(n1)C1(CC1)C(=O)N(c1c(F)c(OC)cc(OC)c1F)C2 [Example 12, N-((1 S,2R)-2-(6′-(2,6-difluoro-3,5-dimethoxyphenyl)-7′-oxo-6′,7′-dihydro-5′H-spiro[cyclopropane-1,8′-pyrido[4,3-d]pyrimidine]-2′-yloxy)cyclopentyl)acrylamide]

The next lines start with the compound.

Row | SMILES | FGFR3/FGFR4 (FGFR3; [1]) | FGFR3/FGFR4 (FGFR3; pre-incubated for 4 hours) | IC50 (FGFR3; [2]) | IC50 (FGFR3; [3]) | IC50 (FGFR4; [4]) | IC50 (FGFR4; [5]) | FGFR1/FGFR4 (FGFR1; [1]) | FGFR1/FGFR4 (FGFR1; pre-incubated for 4 hours) | IC50 (FGFR1; [6]) | IC50 (FGFR1; [7]) | FGFR2/FGFR4 (FGFR2; [1]) | FGFR2/FGFR4 (FGFR2; pre-incubated for 4 hours) | IC50 (FGFR2; [8]) | IC50 (FGFR2; [9]) | IC50 (FGFR3) | IC50 (FGFR4; [10]) | IC50 (FGFR4; [11]) | IC50 (FGFR1; [12]) | IC50 (FGFR1; [13]) | IC50 (FGFR2)
6 | C=CC(=O)Nc1ccccc1Nc1cc2c(cn1)CN(c1c(F)c(OC)cc(OC)c1F)C(=O)C21CCOCC1 [Example 8, N-(2-(2-(2,6-difluoro-3,5-dimethoxyphenyl)-3-oxo-2,2′,3,3′,5′,6′-hexahydro-1H-spiro[[2,7]naphthyridine-4,4′-pyran]-6-ylamino)phenyl)acrylamide] | >10 | >100 | > 200 nM | > 200 nM | > 200 nM | < 10 nM | >10 | >100 | > 200 nM | > 200 nM | >10 | >100 | > 200 nM | > 200 nM | – | – | – | – | – | –
7 | C=CC(=O)NC1COCC1Nc1cc2c(cn1)CN(c1c(F)c(OC)cc(OC)c1F)C(=O)C21CC1 (racemic) [Example 4, N-(4-(2′-(2,6-difluoro-3,5-dimethoxyphenyl)-3′-oxo-2′,3′-dihydro-1′H-spiro[cyclopropane-1,4′-[2,7]naphthyridine]-6′-ylamino)tetrahydrofuran-3-yl)acrylamide] | >10 | >100 | > 200 nM | – | – | – | >10 | >100 | – | – | >10 | >100 | > 200 nM | – | > 200 nM | < 10 nM | < 10 nM | > 200 nM | 30 to 200 nM | > 200 nM
8 | C=CC(=O)Nc1ccccc1Nc1cc2c(cn1)CN(c1c(F)c(OC)cc(OC)c1F)C(=O)C21CCCC1 [Example 7, N-(2-(2′-(2,6-difluoro-3,5-dimethoxyphenyl)-3′-oxo-2′,3′-dihydro-1′H-spiro [cyclopentane-1,4′-[2,7]naphthyridine]-6′-ylamino)phenyl)acrylamide] | >10 | >100 | > 200 nM | > 200 nM | < 10 nM | < 10 nM | >10 | >100 | – | – | >10 | >100 | > 200 nM | – | – | – | – | 30 to 200 nM | 30 to 200 nM | 30 to 200 nM
9 | C=CC(=O)NC1CCCCC1Nc1cc2c(cn1)CN(c1c(F)c(OC)cc(OC)c1F)C(=O)C21CC1 (racemic) [Example 3, N-(2-(2′-(2,6-difluoro-3,5-dimethoxyphenyl)-3′-oxo-2′,3′-dihydro-1′H-spiro [cyclopropane-1,4′-[2,7]naphthyridine]-6′-ylamino)cyclohexyl)acrylamide] | >10 | >100 | > 200 nM | – | – | – | >5 | >25 | – | – | >5 | >25 | > 200 nM | – | > 200 nM | 30 to 200 nM | < 10 nM | > 200 nM | > 200 nM | > 200 nM
10 | C=CC(=O)Nc1cccc(C)c1Nc1cc2c(cn1)CN(c1c(F)c(OC)cc(OC)c1F)C(=O)C21CC1 [Example 5, N-(2-(2′-(2,6-difluoro-3,5-dimethoxyphenyl)-3′-oxo-2′,3′-dihydro-1′H-spiro [cyclopropane-1,4′-[2,7]naphthyridine]-6′-ylamino)-3-methylphenyl)acrylamide] | >10 | >100 | > 200 nM | > 200 nM | < 10 nM | < 10 nM | >10 | >100 | > 200 nM | > 200 nM | >10 | >100 | > 200 nM | > 200 nM | – | – | – | – | – | –
11 | C=CC(=O)Nc1ccccc1Nc1cc2c(cn1)CN(c1c(F)c(OC)cc(OC)c1F)C(=O)C21CCOC1 (stereo not drawn) [Example 9, N-(2-(2′-(2,6-difluoro-3,5-dimethoxyphenyl)-3′-oxo-2′,3′,4,5-tetrahydro-1′H,2H-spiro[furan-3,4′-[2,7]naphthyridine]-6′-ylamino)phenyl)acrylamide] | >10 | >100 | > 200 nM | > 200 nM | – | < 10 nM | >10 | >100 | > 200 nM | > 200 nM | >10 | >100 | > 200 nM | > 200 nM | – | 10 to 30 nM | – | – | – | –
12 | C=CC(=O)N(C)c1cc2c(cn1)CN(c1c(F)c(OC)cc(OC)c1F)C(=O)C21CC1 [Example 2, N-(2′-(2,6-difluoro-3,5-dimethoxyphenyl)-3′-oxo-2′,3′-dihydro-1′H-spiro [cyclopropane-1,4′-[2,7]naphthyridine]-6′-yl)-N-methylacrylamide] | >5 | >10 | > 200 nM | – | – | < 10 nM | >5 | >10 | – | – | >2 | >5 | 30 to 200 nM | – | 30 to 200 nM | 10 to 30 nM | – | 30 to 200 nM | 30 to 200 nM | 30 to 200 nM
